From the NIST ThermoML archive (doi:10.1021/je500857w)
± gives the expanded uncertainty stated by the source.

Experiment: xn = mol fraction of the nth substance listed
Conditions: Gas, Vibrating wire viscometry, x1 = 0.949

C [methane] + CCC
Conditions | viscosity [mPa·s]
199.92 K, 10367 kPa | 0.03814 ± 0.0019
200.6 K, 13841 kPa | 0.04236 ± 0.0016
202.32 K, 17279 kPa | 0.04452 ± 0.0017
203.24 K, 24182 kPa | 0.05008 ± 0.0018
203.36 K, 20735 kPa | 0.04739 ± 0.0019
203.36 K, 27628 kPa | 0.05294 ± 0.0018
203.43 K, 25922 kPa | 0.0511 ± 0.0019
204.19 K, 31114 kPa | 0.05549 ± 0.0018
255.51 K, 24135 kPa | 0.03085 ± 0.00042
255.57 K, 31095 kPa | 0.03577 ± 0.0006
255.59 K, 25902 kPa | 0.03221 ± 0.00046
255.59 K, 27592 kPa | 0.03348 ± 0.00048
255.62 K, 20701 kPa | 0.02791 ± 0.00042
311.08 K, 25869 kPa | 0.02348 ± 0.00038
311.11 K, 31037 kPa | 0.0265 ± 0.0004
311.12 K, 20946 kPa | 0.02061 ± 0.00062
311.13 K, 24419 kPa | 0.02279 ± 0.00062
311.13 K, 27584 kPa | 0.02453 ± 0.00046
366.88 K, 24192 kPa | 0.01997 ± 0.00032
366.89 K, 25926 kPa | 0.02064 ± 0.0003
366.89 K, 27645 kPa | 0.02138 ± 0.00032
366.89 K, 31144 kPa | 0.0226 ± 0.00054
423.62 K, 24191 kPa | 0.01944 ± 0.00034
423.63 K, 25937 kPa | 0.01988 ± 0.00028
423.63 K, 27640 kPa | 0.02032 ± 0.00034
423.63 K, 31097 kPa | 0.02136 ± 0.0003
